From publication PMC6927578 (Archiv der Pharmazie, 2016)
Like-named read-outs stand apart in the source and are kept apart here.

Experiments:
HDAC1 = HDAC1 (Homo sapiens, UniProt Q13547); assay: Fluor de Lys HDAC isoform assay, HDAC1; details: for isoform selectivity among HDAC1, 3 and 6: 125 μM single concentration screen (Fig. 2)
[1] = test system: HDAC activity from HeLa cell lysates; assay: Fluor de Lys in vitro fluorescence HDAC activity assay with HeLa cell lysates; assay type: biochemical, human; details: for fold reduced potency compared to SAHA: HeLa cell lysates IC50 ratio; for IC50 / % activity remaining: HeLa cell lysates; for IC50: mean of three trials with standard error; for % activity remaining: 250 μM compound
HDAC6 = target: T1, HDAC6 (Homo sapiens, UniProt Q9UBN7); assay: Fluor de Lys HDAC isoform assay, HDAC6
T1 sequence (Q9UBN7 1-1215): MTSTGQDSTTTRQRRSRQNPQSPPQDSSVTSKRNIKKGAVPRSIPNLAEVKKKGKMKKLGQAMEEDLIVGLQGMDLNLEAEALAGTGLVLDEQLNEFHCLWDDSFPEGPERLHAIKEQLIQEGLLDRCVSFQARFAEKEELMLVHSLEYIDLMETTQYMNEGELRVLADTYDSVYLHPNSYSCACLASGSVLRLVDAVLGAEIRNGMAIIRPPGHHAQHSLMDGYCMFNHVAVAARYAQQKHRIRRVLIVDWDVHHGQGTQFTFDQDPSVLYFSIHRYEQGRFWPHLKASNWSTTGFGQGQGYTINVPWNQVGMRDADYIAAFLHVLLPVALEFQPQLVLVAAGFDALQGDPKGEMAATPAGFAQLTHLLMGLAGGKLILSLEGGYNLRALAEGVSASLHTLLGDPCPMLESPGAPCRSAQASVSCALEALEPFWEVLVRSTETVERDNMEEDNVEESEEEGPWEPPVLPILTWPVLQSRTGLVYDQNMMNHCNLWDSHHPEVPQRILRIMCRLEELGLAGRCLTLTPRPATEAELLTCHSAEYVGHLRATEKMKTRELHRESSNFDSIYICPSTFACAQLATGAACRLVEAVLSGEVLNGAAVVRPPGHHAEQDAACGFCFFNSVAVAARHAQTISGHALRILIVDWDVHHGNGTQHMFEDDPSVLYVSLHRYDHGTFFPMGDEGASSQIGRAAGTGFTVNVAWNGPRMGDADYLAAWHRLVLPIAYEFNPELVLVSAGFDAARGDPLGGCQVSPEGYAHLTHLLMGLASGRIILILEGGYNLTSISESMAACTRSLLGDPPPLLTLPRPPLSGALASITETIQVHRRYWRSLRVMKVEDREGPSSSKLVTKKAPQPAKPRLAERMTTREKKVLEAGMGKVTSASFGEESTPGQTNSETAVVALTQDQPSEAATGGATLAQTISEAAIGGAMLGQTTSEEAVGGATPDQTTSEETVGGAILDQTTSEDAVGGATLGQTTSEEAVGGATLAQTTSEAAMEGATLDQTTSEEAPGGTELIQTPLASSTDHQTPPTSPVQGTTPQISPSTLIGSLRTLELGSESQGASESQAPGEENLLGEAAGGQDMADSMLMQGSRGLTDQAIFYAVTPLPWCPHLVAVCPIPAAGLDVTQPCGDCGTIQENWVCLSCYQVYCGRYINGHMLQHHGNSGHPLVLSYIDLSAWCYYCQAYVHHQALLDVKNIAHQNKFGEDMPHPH

HDAC3 = HDAC3 (Homo sapiens, UniProt O15379); assay: Fluor de Lys HDAC isoform assay, HDAC3
Chain of HDAC3 (O15379 whole entry, canonical isoform): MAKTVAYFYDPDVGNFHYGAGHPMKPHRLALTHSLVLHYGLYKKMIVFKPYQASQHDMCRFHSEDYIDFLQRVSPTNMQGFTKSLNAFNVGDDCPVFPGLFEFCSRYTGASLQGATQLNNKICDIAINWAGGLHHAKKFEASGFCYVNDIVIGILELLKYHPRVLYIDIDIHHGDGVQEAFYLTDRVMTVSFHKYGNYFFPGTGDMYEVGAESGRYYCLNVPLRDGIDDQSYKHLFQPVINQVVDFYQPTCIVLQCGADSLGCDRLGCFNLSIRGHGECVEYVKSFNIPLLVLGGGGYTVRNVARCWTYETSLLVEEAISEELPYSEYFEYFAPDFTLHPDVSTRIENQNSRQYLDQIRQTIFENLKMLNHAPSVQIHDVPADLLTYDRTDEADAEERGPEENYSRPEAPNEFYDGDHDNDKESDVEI
Chain of HDAC3 (Q9Y618 395-489 partner limits assumed): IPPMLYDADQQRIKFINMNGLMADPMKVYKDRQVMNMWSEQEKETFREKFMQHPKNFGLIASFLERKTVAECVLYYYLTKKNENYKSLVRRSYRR

[2] = Solubility observed in the HDAC assay; assay type: physicochemical; details: assay conditions; prevented testing above 250 μM
[3] = 125 μM single concentration screen

Chain of HDAC1 (Q13547 whole entry, canonical isoform): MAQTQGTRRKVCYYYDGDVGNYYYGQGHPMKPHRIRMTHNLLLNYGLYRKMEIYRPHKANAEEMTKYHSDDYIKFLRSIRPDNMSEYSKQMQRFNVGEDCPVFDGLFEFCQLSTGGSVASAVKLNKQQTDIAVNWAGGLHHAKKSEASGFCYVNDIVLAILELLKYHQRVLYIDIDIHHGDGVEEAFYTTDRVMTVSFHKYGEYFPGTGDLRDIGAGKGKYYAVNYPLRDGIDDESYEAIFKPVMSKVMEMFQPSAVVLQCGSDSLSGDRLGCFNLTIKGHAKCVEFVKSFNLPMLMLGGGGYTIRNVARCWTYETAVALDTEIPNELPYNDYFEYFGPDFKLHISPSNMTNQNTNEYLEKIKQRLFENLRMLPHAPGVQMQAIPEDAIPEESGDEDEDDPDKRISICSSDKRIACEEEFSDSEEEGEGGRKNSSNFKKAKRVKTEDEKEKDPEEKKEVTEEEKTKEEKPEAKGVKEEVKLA

| isoform selectivity among HDAC1, 3 and 6 (HDAC1) | IC50 [1] [µM] | IC50 (HDAC1) [µM] | preference for HDAC1 versus HDAC3 (HDAC1; ratio of IC50 values) [fold] | IC50 (HDAC6) [µM] | IC50 (HDAC3) [µM] | Structure (SMILES) | fold reduced potency compared to SAHA [1] [fold] | solubility [2] | % activity remaining [1] | activity remaining, HDAC1 (HDAC1; [3]) [%] | IC50 (HDAC1; read-out: IC50 HDAC1, mean of at least three trials with standard error) [µM] | inhibition of HDAC6 (HDAC6; [3]) | inhibition of HDAC3 (HDAC3; [3]) |
| --- | --- | --- | --- | --- | --- | --- | --- | --- | --- | --- | --- | --- | --- |
| little to no isoform selectivity | 794 ± 41 |  |  |  |  | CN(O)C(=O)CCCCCCC(=O)Nc1ccccc1 [Compound 2a, N^1-hydroxy-N^1-methyl-N^8-phenyloctanediamide] | > 8800 |  |  |  |  |  |  |
| preferential HDAC1 inhibition | 293 ± 32 | 177 ± 21 | 2.5 | 287 ± 9 | 440 ± 23 | O=C(CCCCCCC(=O)N(O)Cc1ccccc1)Nc1ccccc1 [Compound 2c, N^1-benzyl-N^1-hydroxy-N^8-phenyloctanediamide] |  |  |  |  |  |  |  |

Second part, the compound before the results:

| Structure (SMILES) | isoform selectivity among HDAC1, 3 and 6 (HDAC1) | IC50 [1] [µM] | IC50 (HDAC1) [µM] | preference for HDAC1 versus HDAC3 (HDAC1; ratio of IC50 values) [fold] | IC50 (HDAC6) [µM] | IC50 (HDAC3) [µM] | fold reduced potency compared to SAHA [1] [fold] | solubility [2] | % activity remaining [1] | activity remaining, HDAC1 (HDAC1; [3]) [%] | IC50 (HDAC1; read-out: IC50 HDAC1, mean of at least three trials with standard error) [µM] | inhibition of HDAC6 (HDAC6; [3]) | inhibition of HDAC3 (HDAC3; [3]) |
| --- | --- | --- | --- | --- | --- | --- | --- | --- | --- | --- | --- | --- | --- |
| CCCCCN(O)C(=O)CCCCCCC(=O)Nc1ccccc1 [Compound 2b, N^1-pentyl-N^1-hydroxy-N^8-phenyloctanediamide] | little to no isoform selectivity | 153 ± 14 |  |  |  |  | 1700 |  |  |  |  |  |  |
| O=C(CCCCCCC(=O)N(O)CCc1ccccc1)Nc1ccccc1 [Compound 2d, N^1-hydroxy-N^1-phenethyl-N^8-phenyloctanediamide] | roughly similar potency against the isoforms | > 500 |  |  |  |  |  | low solubility at high concentrations | 80 ± 2% activity at 250 μM^b) |  |  |  |  |
| O=C(CCCCCCC(=O)N(O)Cc1ccc(-c2ccccc2)cc1)Nc1ccccc1 [Compound 2e, N^1-(biphenyl-4-methyl)-N^1-hydroxy-N^8-phenyloctanediamide] | preferential HDAC1 inhibition | > 500 |  |  |  |  |  | low solubility at high concentrations | 101 ± 1% activity with 250 μM^b) | 58±2 | 233 ± 40 | statistically insignificant inhibition | statistically insignificant inhibition |
